Assay results taken from patent US10035800B2 (AbbVie Inc., priority 2013, dated 2018).

Key:
[1] = target: T1, BRD4 (BDI_K57-E168) (Homo sapiens, UniProt O60885); assay: TR-FRET bromodomain binding assay, first bromodomain of BRD4; details: TR-FRET assay protocol G (compound 0.92 μM-15 pM); 100 nM probe
T1 construct: BD1: amino acids K57-E168; made in house
Description: (§1) Bromodomain Domain Binding Assay
(§2) A time-resolved fluorescence resonance energy transfer (TR-FRET) assay was used to determine the affinities of compounds of the Examples listed in Table 1 for each bromodomain of BRD4. His-tagged first (BD1: amino acids K57-E168) and second (BD2: amino acids […]) bromodomains of BRD4 were expressed and purified. An Alexa647-labeled BET-inhibitor was used as the fluorescent probe in the assay.
(§3) Compound dilution series were prepared in DMSO via an approximately 3-fold serial dilution from one of the following: […]
(§4) Assay method E: 0.47 mM to 7.8 nM […]
(§5) Assay method G: 0.047 mM to 0.78 nM
(§6) or 5-fold serial dilution from one of the following: […]
(§7) Assay method B: 2.5 mM-797 nM […]
(§8) For Assay methods B, E, and G: Compound dilutions were added directly into white, low-volume assay plates (Perkin Elmer Proxiplate 384 Plus#6008280) using a Labcyte Echo in conjunction with Labcyte Access and Thermo Multidrop CombinL robotics. Compounds were then suspended in eight microliters (μL) of assay buffer (20 mM Sodium Phosphate, pH 6.0, 50 mM NaCl, 1 mM Ethylenediaminetetraacetic acid disodium salt dihydrate, 0.01% Triton X-100, 1 mM DL-Dithiothreitol) containing His-tagged bromodomain, Europium-conjugated anti-His antibody (Invitrogen PV5596) and Alexa-647-conjugated probe.
(§9) The final concentration of 1× assay mixture for assay methods A, B, C, D, E, F, and G contains 2% DMSO, 8 nM His-tagged bromodomain, 1 nM Europium-conjugated anti-His-tag antibody and 100 nM or 30 nM probe (for BDI or BDII, respectively) and compound concentration in the range of: 50 μM-16 nM for method A, 49.02 μM-15.63 nM for method B, 25 μM-423 pM for method C, 10 μM-169 pM for method D, 9.19 μM-150 pM for method E, 5 μM-85 pM for method F, and 0.92 μM-15 pM for method G.
(§10) After a one-hour equilibration at room temperature, TR-FRET ratios were determined using an Envision multilabel plate reader (Ex 340, Em 495/520).
(§11) TR-FRET data were normalized to the means of 24 no-compound controls (“high”) and 8 controls containing 1 μM un-labeled probe (“low”). Percent inhibition was plotted as a function of compound concentration and the data were fit with the 4 parameter logistic equation to obtain IC50s. Inhibition constants (Ki) were calculated from the IC50s, probe Kd and probe concentration. Typical Z′ values were between 0.65 and 0.75. The minimum significant ratio was determined to evaluate assay reproducibility (Eastwood et al., (2006) J Biomol Screen, 11: 253-261). The MSR was determined to be 2.03 for BDI and 1.93 for BDII, and a moving MSR (last six run MSR overtime) for both BDI and BDII was typically <3.

[2] = target: T2, BRD4 (BDII_E352-M457) (Homo sapiens, UniProt O60885); assay: TR-FRET bromodomain binding assay, second bromodomain of BRD4; details: TR-FRET assay protocol G (compound 0.92 μM-15 pM); 30 nM probe
T2 construct: protocol; made in house
Description: as §1, §2, §3, §4, §5, §6, §7, §8, §9, §10, §11

Compound	Ki [1]	Ki [2]
CCc1ccc(CCNC(=O)N2Cc3c[nH]c4c(=O)n(C)cc(c34)-c3cc(CS(C)(=O)=O)ccc32)cc1 [Example 63, N-(4-ethylphenethyl)-10-methyl-7-((methylsulfonyl)methyl)-11-oxo-10,11-dihydro-1H-1,4,10-triazadibenzo[cd,f]azulene-4(3H)-carboxamide]	82.2 nM	73.6 nM
COc1cccc(CNC(=O)N2Cc3c[nH]c4c(=O)n(C)cc(c34)-c3cc(CS(C)(=O)=O)ccc32)c1 [Example 65, N-(3-methoxybenzyl)-10-methyl-7-((methylsulfonyl)methyl)-11-oxo-10,11-dihydro-1H-1,4,10-triazadibenzo[cd,f]azulene-4(3H)-carboxamide]	> 238 nM	238 nM
Cn1cc2c3c(c[nH]c3c1=O)CN(C(=O)NCC1CCCCC1)c1ccc(CS(C)(=O)=O)cc1-2 [Example 67, N-(cyclohexylmethyl)-10-methyl-7-((methylsulfonyl)methyl)-11-oxo-10,11-dihydro-1H-1,4,10-triazadibenzo[cd,f]azulene-4(3H)-carboxamide]	> 238 nM	> 408 nM
Cn1cc2c3c(c[nH]c3c1=O)CN(C(=O)Nc1ccc(F)c(C(F)(F)F)c1)c1ccc(CS(C)(=O)=O)cc1-2 [Example 71, N-(4-fluoro-3-(trifluoromethyl)phenyl)-10-methyl-7-((methylsulfonyl)methyl)-11-oxo-10,11-dihydro-1H-1,4,10-triazadibenzo[cd,f]azulene-4(3H)-carboxamide]	30.4 nM	26.7 nM
CCOC(=O)C1CCC(CNC(=O)N2Cc3c[nH]c4c(=O)n(C)cc(c34)-c3cc(CS(C)(=O)=O)ccc32)CC1 (centres unmarked) [Example 72, ethyl 4-((10-methyl-7-((methylsulfonyl)methyl)-11-oxo-3,4,10,11-tetrahydro-1H-1,4,10-triazadibenzo[cd,f]azulene-4-carboxamido)methyl)cyclohexanecarboxylate]	26.2 nM	37 nM
Cc1ccc(S(=O)(=O)N2Cc3c[nH]c4c(=O)n(C)cc(c34)-c3cc(CS(C)(=O)=O)ccc32)cc1 [Example 74, 10-methyl-7-((methylsulfonyl)methyl)-4-tosyl-3,4-dihydro-1H-1,4,10-triazadibenzo[cd,f]azulen-11(10H)-one]	> 238 nM	369 nM
COc1ccc(S(=O)(=O)N2Cc3c[nH]c4c(=O)n(C)cc(c34)-c3cc(CS(C)(=O)=O)ccc32)cc1 [Example 76, 4-((4-methoxyphenyl)sulfonyl)-10-methyl-7-((methylsulfonyl)methyl)-3,4-dihydro-1H-1,4,10-triazadibenzo[cd,f]azulen-11(10H)-one]	> 238 nM	> 408 nM
Cn1cc2c3c(c[nH]c3c1=O)CN(S(=O)(=O)c1ccccc1)c1ccc(CS(C)(=O)=O)cc1-2 [Example 77, 10-methyl-7-((methylsulfonyl)methyl)-4-(phenylsulfonyl)-3,4-dihydro-1H-1,4,10-triazadibenzo[cd,f]azulen-11(10H)-one]	> 238 nM	275 nM
COc1ccccc1S(=O)(=O)N1Cc2c[nH]c3c(=O)n(C)cc(c23)-c2cc(CS(C)(=O)=O)ccc21 [Example 78, 4-((2-methoxyphenyl)sulfonyl)-10-methyl-7-((methylsulfonyl)methyl)-3,4-dihydro-1H-1,4,10-triazadibenzo[cd,f]azulen-11(10H)-one]	216 nM	126 nM
Cn1cc2c3c(c[nH]c3c1=O)CN(S(=O)(=O)c1ccc(Oc3ccccc3)cc1)c1ccc(CS(C)(=O)=O)cc1-2 [Example 79, 10-methyl-7-((methylsulfonyl)methyl)-4-((4-phenoxyphenyl)sulfonyl)-3,4-dihydro-1H-1,4,10-triazadibenzo[cd,f]azulen-11(10H)-one]	> 238 nM	> 408 nM
Cn1cc2c3c(c[nH]c3c1=O)CN(S(=O)(=O)c1ccc(F)cc1)c1ccc(CS(C)(=O)=O)cc1-2 [Example 80, 4-((4-fluorophenyl)sulfonyl)-10-methyl-7-((methylsulfonyl)methyl)-3,4-dihydro-1H-1,4,10-triazadibenzo[cd,f]azulen-11(10H)-one]	> 238 nM	> 408 nM
Cn1cc2c3c(c[nH]c3c1=O)CN(C(=O)c1ccc3ccccc3c1)c1ccc(CS(C)(=O)=O)cc1-2 [Example 81, 4-(2-naphthoyl)-10-methyl-7-((methylsulfonyl)methyl)-3,4-dihydro-1H-1,4,10-triazadibenzo[cd,f]azulen-11(10H)-one]	51.7 nM	32.3 nM
Cn1cc2c3c(c[nH]c3c1=O)CN(c1ccc(F)cc1F)c1ncncc1-2 [Example 83, 4-(2,4-difluorophenyl)-10-methyl-3,4-dihydro-1H-1,4,5,7,10-pentaazadibenzo[cd,f]azulen-11(10H)-one]	> 238 nM	> 408 nM
COCCOC(=O)N1Cc2c[nH]c3c(=O)n(C)cc(c23)-c2cc(CS(C)(=O)=O)ccc21 [Example 86, 2-methoxyethyl 10-methyl-7-((methylsulfonyl)methyl)-11-oxo-10,11-dihydro-1H-1,4,10-triazadibenzo[cd,f]azulene-4(3H)-carboxylate]	10.3 nM	13.9 nM
Cn1cc2c3c(c[nH]c3c1=O)CN(C(=O)c1ccc(F)cc1)c1ccc(CS(C)(=O)=O)cc1-2 [Example 100, 4-(4-fluorobenzoyl)-10-methyl-7-((methylsulfonyl)methyl)-3,4-dihydro-1H-1,4,10-triazadibenzo[cd,f]azulen-11(10H)-one]	29.8 nM	7.41 nM

Now those with a lower Ki [1], led by results:

Ki [1]	Ki [2]	Compound
3.46 nM	1.76 nM	CCCCCOC(=O)N1Cc2c[nH]c3c(=O)n(C)cc(c23)-c2cc(CS(C)(=O)=O)ccc21 [Example 88, pentyl 10-methyl-7-((methylsulfonyl)methyl)-11-oxo-10,11-dihydro-1H-1,4,10-triazadibenzo[cd,f]azulene-4(3H)-carboxylate]
5.77 nM	4.53 nM	Cn1cc2c3c(c[nH]c3c1=O)CN(C(=O)OCCCCCl)c1ccc(CS(C)(=O)=O)cc1-2 [Example 89, 4-chlorobutyl 10-methyl-7-((methylsulfonyl)methyl)-11-oxo-10,11-dihydro-1H-1,4,10-triazadibenzo[cd,f]azulene-4(3H)-carboxylate]
3.74 nM	5.58 nM	Cn1cc2c3c(c[nH]c3c1=O)CN(C(=O)OCC(C)(C)C)c1ccc(CS(C)(=O)=O)cc1-2 [Example 92, neopentyl 10-methyl-7-((methylsulfonyl)methyl)-11-oxo-10,11-dihydro-1H-1,4,10-triazadibenzo[cd,f]azulene-4(3H)-carboxylate]
3.46 nM	1.61 nM	Cn1cc2c3c(c[nH]c3c1=O)CN(C(=O)OCCF)c1ccc(CS(C)(=O)=O)cc1-2 [Example 96, 2-fluoroethyl 10-methyl-7-((methylsulfonyl)methyl)-11-oxo-10,11-dihydro-1H-1,4,10-triazadibenzo[cd,f]azulene-4(3H)-carboxylate]
3.21 nM	1.35 nM	COc1ccc(OC(=O)N2Cc3c[nH]c4c(=O)n(C)cc(c34)-c3cc(CS(C)(=O)=O)ccc32)cc1 [Example 97, 4-methoxyphenyl 10-methyl-7-((methylsulfonyl)methyl)-11-oxo-10,11-dihydro-1H-1,4,10-triazadibenzo[cd,f]azulene-4(3H)-carboxylate]
4.83 nM	2.77 nM	COCCC(=O)N1Cc2c[nH]c3c(=O)n(C)cc(c23)-c2cc(CS(C)(=O)=O)ccc21 [Example 101, 4-(3-methoxypropanoyl)-10-methyl-7-((methylsulfonyl)methyl)-3,4-dihydro-1H-1,4,10-triazadibenzo[cd,f]azulen-11(10H)-one]
8.12 nM	4.71 nM	Cn1cc2c3c(c[nH]c3c1=O)CN(C(=O)CCC1CCCC1)c1ccc(CS(C)(=O)=O)cc1-2 [Example 103, 4-(3-cyclopentylpropanoyl)-10-methyl-7-((methylsulfonyl)methyl)-3,4-dihydro-1H-1,4,10-triazadibenzo[cd,f]azulen-11(10H)-one]
